In patent US20140273006A1, “METHOD OF THERAPY SELECTION FOR PATIENTS WITH CANCER” (NESTEC S.A., priority 2011, published 2014):

What was measured:
[1] = system: PI3K-related pathways; test: CEER-based analysis of BCA clinical samples from patients treated with BYL719; format: in vivo, human
Experimental: CEER analysis includes normalizing the measured expression/activation levels of signaling transduction analytes against standard controls using statistical algorithms. In particular, Relative Fluorescence Unit (RFU) values are converted to Computed Units (CU), a standard functional unit of measure based on cell line controls with known levels of analyte expression. For each slide of the CEER assay, a standard curve of serial diluted cell lysate is prepared for a particular analyte-positive cell line (e.g., HER1-positive cell line is MDA-MB-468; HER2-positive cell line is SKBr3). Thus, normalized levels of each particular analyte and the degree of phosphorylation in each sample can be obtained against standard cell lines.
This example illustrates a CEER-based analysis of BCA clinical samples from patients treated with a PI3K inhibitor, BYL719 (Novartis). In particular, signaling pathway profiles from individual patients are shown to shift during the course of BYL719 treatment. Therefore, CEER-based analysis of PI3K-related pathways allows for responsive, individualized management of BYL719 treatment to improve clinical outcomes. Oncogenic receptor tyrosine kinases (HER1, HER2, HER3, cMET, IGF-1R, and cKIT) were quantified, as well as PI3K and other tyrosine kinase signaling cascade components including SHC, AKT, ERK, MEK, RSK, pRAS 40, RPS6, P70S6K, and PTEN. Levels of total protein and activated protein were measured.

[2] = system: cell line H460; test: CEER pathway profiling of cell line H460 after PI3K inhibitor, MEK inhibitor or combination treatment; format: cell-based, human; settings: PI3K inhibitor alone or in combination with a MEK inhibitor, day 8, 9, 12, 13, 4 hours or 24 hours of drug exposure
Experimental: (§1) In one particular embodiment, the proximity assay (e.g., CEER) for detecting the activation level or status of an analyte of interest comprises: • (i) incubating the cellular extract with one or a plurality of dilution series of capture antibodies to form a plurality of captured analytes; • (ii) incubating the plurality of captured analytes with detection antibodies comprising one or a plurality of activation state-independent antibodies and one or a plurality of activation state-dependent antibodies specific for the corresponding analytes to form a plurality of detectable captured analytes, • wherein the activation state-independent antibodies are labeled with a facilitating moiety, the activation state-dependent antibodies are labeled with a first member of a signal amplification pair, and the facilitating moiety generates an oxidizing agent which channels to and reacts with the first member of the signal amplification pair; • (iii) incubating the plurality of detectable captured analytes with a second member of the signal amplification pair to generate an amplified signal; and • (iv) detecting the amplified signal generated from the first and second members of the signal amplification pair.
The levels of other downstream signaling components of the pathway were measured, including HER1, HER2, cMET, PI3K, AKT, ERK, PTEN, MEK, p70S6K, PRAS40, RPS6 and PDK. […]

[3] = system: H1975 cells; test: CEER pathway profiling of H1975 cells after PI3K inhibitor, MEK inhibitor or combination treatment; format: cell-based, human; settings: for levels of activated PI3K: H1975 cells treated with either PI3K inhibitor, MEK inhibitor, or combinations; for levels of other activated proteins (p-MEK, p-ERK, p-AKT, p-PRAS40, p-70S6K, and p-RPS6): H1975 cells, in response to treatment
Experimental: as §1
The levels of other downstream signaling components of the pathway were measured, including HER1, HER2, cMET, PI3K, AKT, ERK, PTEN, MEK, p70S6K, PRAS40, RPS6 and PDK. Cell lines derived from non-small cell lung cancer such as NCI-H460, NCI-H647, NCI-H1155, NCI-1299, NCI-1975, NCI-H2228, and NCI-H661 were also used. The different therapies tested included a PI3K inhibitor alone at low or high dose, a MEK inhibitor alone at low or high dose, and a PI3K inhibitor plus a MEK inhibitor together at low dose or high dose. The cells were assayed at either 4 hours after treatment or 24 hours (see, * in FIGS. 6-10) after treatment.

[4] = system: H1651; test: IC50 of the PI3K inhibitor drug (GDC0941) versus activated PI3K levels, H1651; format: cell-based, human; settings: H1651, cell line with PI3K activation
Excerpt: (§2) FIG. 13 illustrates that the CEER assay can be used to calculate the IC50 of an anti-cancer drug relative to the level of activated PI3K and other downstream components of the HER1/HER2/cMET pathway. […] In some cancer cells inhibition of PI3K activation corresponds to inhibition of activation of downstream proteins. In addition the extent of the inhibition is specific to the cell line and the inhibitor treatment.
(§3) The relationship between the IC50 of the PI3K inhibitor drug (GDC0941) and activated PI3K levels was analyzed in several cell lines. It was determined that cell lines (e.g., H1651 or H2087) with PI3K activation have low IC50. H1651 cells carry no known genetic mutations but have high EGFR expression. H2087 has NRAS and BRAF mutations. Cell lines (e.g., Calu-6) with two more alterations such as multiple mutations (e.g., MAPK mutations) and PI3K activation had high IC50 values. Thus, phospho-PI3K can be an indicator or predictor of sensitivity to PI3K inhibitors.

[5] = system: H2087; test: IC50 of the PI3K inhibitor drug (GDC0941) versus activated PI3K levels, H2087; format: cell-based, human; settings: H2087, cell line with PI3K activation
Excerpt: as §2, §3

[6] = system: Calu-6; test: IC50 of the PI3K inhibitor drug (GDC0941) versus activated PI3K levels, Calu-6; format: cell-based, human; settings: Calu-6, two more alterations (multiple mutations and PI3K activation)
Excerpt: as §2, §3

[7] = system: cell lines with inactive PTEN; test: IC50 of the PI3K inhibitor in cell lines by PTEN status (FIG. 14); format: cell-based, human; settings: cell lines with inactive PTEN (point mutation or null mutation)
Experimental: as §3

[8] = system: Stage III triple negative breast cancer; test: Clinical response of patients with triple negative breast cancer to combination therapy; format: in vivo, human; settings: Patient #4; combination therapy of Herceptin and Lapatinib
Excerpt: Patient #4 represents a patient diagnosed with Stage III triple negative breast cancer (e.g., ER-, PR-, HER2-). The patient underwent radical mastectomy.
Patient #5 represents a patient diagnosed with Stage III triple negative breast cancer (e.g., ER-, PR-, HER2-). The patient underwent radical mastectomy.

[9] = system: PI3K, HER2 and IGF1R activation; test: CEER pathway profile of Patient #5 samples before and after treatment; format: in vivo, human; settings: Patient #5, after treatment vs baseline
Excerpt: The samples were cerebrospinal fluid (CSF), fine needle aspirate (FNA) and a biopsy.

[10] = system: PI3K; test: CEER profile of FNA sample of Patient #3 after PI3K inhibitor treatment; format: in vivo, human; settings: Patient #3, FNA sample after treatment; confirmed by CT scan
Experimental: In a retrospective study, a series of samples taken from patients with cancer were evaluated to determine if pathway profiling using the CEER assay is predictive of responsiveness to PI3K treatment. Samples analyzed included those from patients on a therapy time course, e.g., prior to receiving therapy, after initiating therapy, and during the course of therapy.
Following treatment with the PI3K inhibitor drug BAY806946, another sample was taken and analyzed. […] This finding was confirmed by CT scan.

Cc1nc(NC(=O)N2CCC[C@H]2C(N)=O)sc1-c1ccnc(C(C)(C)C(F)(F)F)c1 [BYL719]
level of activated HER3 ([1]; Patient 1, Day 8 of treatment): increased
p-AKT, p-pPRAS, p-P70S6, and p-RPS6 ([1]; Patient 1, Day 8 of treatment): downregulation
total HER3 expression ([1]; Patient 1, Day 8 of treatment): increased
HER3 expression and activation ([1]; Patient 1, Day 28 of treatment): higher than at Day 8
p-AKT, p-PRAS, p-P70S6 and p-RPS6 levels ([1]; Patient 1, Day 28 of treatment): higher than at Day 8
activation of PRAS40 ([1]; Patient 1, course of treatment): initial decrease in activation of PRAS40 was observed, followed by an increase
activation of AKT ([1]; Patient 1, upon treatment): decreased
activation of HER3, ERK, MEK, and RSK ([1]; Patient 1, upon treatment): increased
p-AKT and p-PRAS ([1]; Patient 2, Day 8 of treatment): downregulated
p-MEK, p-ERK, and p-RSK ([1]; Patient 2, Day 8 of treatment): upregulated
p-AKT, p-PRAS, p-MEK, p-ERK, and p-RSK ([1]; Patient 2, Day 28): down-regulated
activation of ERK, MEK, and RSK ([1]; Patient 2, course of treatment): initial increase, followed by a decrease
activation of AKT and PRAS40 ([1]; Patient 2, upon treatment): decrease
activated HER1 ([1]; Patient 3, Day 8): upregulated
activated HER2, HER3 and cMET ([1]; Patient 3, Day 8): down-regulated
levels of p-AKT, p-PRAS, p-MEK, p-ERK and p-RSK ([1]; Patient 3, Day 8): downregulated
RTK activation ([1]; Patient 3, upon treatment): general decrease
PRAS40 activation ([1]; Patient 4): decrease
p-AKT, p-PRAS, p-MEK, p-ERK, and p-RSK ([1]; Patient 4, Day 8): downregulation
PRAS40 activation ([1]; Patient 5): decrease
p-MEK, p-ERK and p-RSK levels ([1]; Patient 5, Day 8 of therapy): Little change
P-AKT and p-RAS ([1]; Patient 5, on therapy): slightly upregulated
p-RPS6 ([1]; Patient 5, on therapy): highly upregulated

COc1c(OCCCN2CCOCC2)ccc2c1N=C(NC(=O)c1cnc(N)nc1)N1CCN=C21.Cl.Cl [BAY841236]
activated proteins of the HER1/HER2/cMET pathway (p-PI3K, p-AKT, p-PRAS40, p-70S6K, and p-RPS6) [2]: downregulated
levels of activated PI3K [3]: relatively similar
levels of other activated proteins (p-MEK, p-ERK, p-AKT, p-PRAS40, p-70S6K, and p-RPS6) [3]: greatly lower

CS(=O)(=O)N1CCN(Cc2cc3nc(-c4cccc5[nH]ncc45)nc(N4CCOCC4)c3s2)CC1 [GDC0941]
IC50 [4]: low
IC50 [5]: low
IC50 [6]: high
IC50 values compared with cell lines with PTEN wild-type status [7]: higher

CS(=O)(=O)CCNCc1ccc(-c2ccc3ncnc(Nc4ccc(OCc5cccc(F)c5)c(Cl)c4)c3c2)o1 [Lapatinib, lapatinib]
response to treatment [8]: responded to treatment
PI3K activation as well as HER2 and IGF1R activation [9]: decreased

COc1cc(F)c(F)c(Nc2ccc(I)cc2F)c1NS(=O)(=O)C1(C[C@H](O)CO)CC1 [BAY869766]
levels of activated PI3K [3]: relatively similar
levels of other activated proteins (p-MEK, p-ERK, p-AKT, p-PRAS40, p-70S6K, and p-RPS6) [3]: greatly lower

COc1c(OCCCN2CCOCC2)ccc2c1N=C(NC(=O)c1cnc(N)nc1)N1CCN=C21 [BAY806946]
PI3K driven cell proliferation [10]: successfully inhibited
